Holding throughout (experiment): NCI-60 cell line screen, 48 h
Assay [1] has as its system OVCAR-8 ovarian.
Assay [2] deals with MDA-MB-435.
The subject of assay [3] is NCI-H226 lung.
The test system of assay [4] is NCI-H522 lung.
The test system of assay [5] is SF-268 CNS.
In assay [6] the test system is M14 melanoma.
Assay [7] has as its system HCT-116 colon.
Assay [8] deals with MDA-MB-231 breast.
The test system of assay [9] is MOLT-4 leukemia.
For assay [10], the system named is SF-295 CNS.
In assay [11] the test system is SNB-75 CNS.
The subject of assay [12] is LOX IMVI melanoma.
Assay [13] relates to CCRF-CEM leukemia.
In assay [14] the test system is DU-145 prostate.
Assay [15] has as its system RPMI-8226 leukemia.
Assay [16] relates to SK-OV-3 ovarian.
Assay [17] relates to BT-549 breast.
Assay [18] concerns T-47D breast.

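Grown in 96-well plates, cells were treated for 48 hours with each compound at five concentrations. Insufficient inhibition: endpoint recorded as highest concentration tested. The concentration for 50% growth inhibition is given as GI50. TGI: total growth inhibition.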 Some results are limits rather than exact numbers.

As to `CCOC(=O)C(C)(C)/C=C\C(Cl)=C(Cl)Cl`, the TGI in assay [1], in assay [2], in assay [3], in [4], in assay [5] and in assay [6] was greater than 100 µM each time. The TGI in [7], in assay [8], in assay [9], in assay [10], in assay [11] and in [12] was greater than 100 µM in each case. In addition, the TGI in [13], in assay [14], in assay [15] and in [16] was greater than 100 µM in each case.

Take `CCc1n[nH]c(=O)n1NC(=O)c1ccccc1C(=O)O`: the TGI in assay [1], in assay [2], in assay [4], in assay [5], in assay [6] and in [17] was greater than 100 µM in each case. For the same compound, the TGI in assay [7], in assay [8], in assay [9], in [10], in assay [11] and in assay [12] was greater than 100 µM in each case. The TGI in [13], in assay [14], in [15] and in assay [16] was greater than 100 µM each time.

Take `CC1(C)N=C(/C=N/O)C(C)(C)N1O`: the TGI in [18], in assay [1], in assay [2], in [3], in [4] and in assay [5] was greater than 100 µM in each case. Also, the TGI in [6], in [7], in assay [8], in assay [9], in [10] and in [11] was greater than 100 µM throughout. Also, the TGI in assay [12], in assay [13], in assay [14], in assay [15] and in assay [16] was greater than 100 µM throughout.

In the case of `O=C1OC[C@@H]2Cc3c([nH]c4ccccc34)[C@@H](c3cc(O)c(O)c(O)c3)N12`, the TGI is greater than 100 µM in assay [18]; 41.8 µM in assay [1]; 25.9 µM in assay [2]; 49.9 µM in [3]; 22.8 µM in [4]; greater than 100 µM in assay [5]. The TGI in assay [6] was determined as 36.7 µM; in assay [7], 61.5 µM; in assay [8], 42.3 µM; in assay [9], 85.9 µM; in assay [10], 34 µM; in assay [11] it was 60.9 µM. In addition, the TGI was 54.3 µM in assay [13], greater than 100 µM in assay [14], 65.8 µM in [15] and greater than 100 µM in [16].

On to `Cc1ccc(O)c(-c2csc(NCN3CCN(CNc4nc(-c5cc(C)ccc5O)cs4)CC3)n2)c1`, for which the TGI in assay [1], in assay [2], in assay [3], in assay [4], in assay [5] and in assay [6] was greater than 100 µM throughout. The TGI in assay [17], in assay [7], in [8], in assay [9], in [10] and in assay [11] was greater than 100 µM each time. The TGI in assay [12], in [13], in [14], in [15] and in assay [16] was greater than 100 µM throughout.

Consider `O=C1CCCCC[C@]12SC[C@H]1CON=C12`, for which the TGI is greater than 100 µM in assay [1]; 39.5 µM in assay [2]; greater than 100 µM in [3]; 69.6 µM in assay [4]; 62 µM in assay [6]; greater than 100 µM in [17]. The TGI in [7], in assay [9], in assay [10], in [12], in assay [13] and in assay [14] was greater than 100 µM throughout. In addition, the TGI in assay [15] and in assay [16] was greater than 100 µM throughout.

As for `CC(NC(=O)C(N)CC(=O)O)NC(=O)N1CCOCC1` (stereo not given), the TGI in assay [1], in assay [2], in [3], in [4], in assay [5] and in [6] was greater than 100 µM in each case. The TGI in assay [17], in assay [7], in [8], in assay [9], in assay [10] and in [11] was greater than 100 µM throughout. The TGI in [12], in assay [13], in [14], in assay [15] and in [16] was greater than 100 µM each time.

Regarding `O=C(NCCCCNCCCNC(=O)c1cc(-c2ccccc2)nc2ccccc12)c1cc(-c2ccccc2)nc2ccccc12`, the TGI is 3.06 µM in assay [1]; 3.17 µM in assay [2]; 3.26 µM in [3]; 3.08 µM in assay [4]; 37.5 µM in assay [17]; 3.2 µM in assay [7]. For the same compound, the results for the TGI in [10], in assay [14] and in assay [15] were 3.17 µM, 3.8 µM and 6.33 µM, respectively.

With `CCn1c(-c2ccc(C)cc2)cs/c1=N\C(P(=O)(O)O)P(=O)(O)O`, the TGI in assay [1], in assay [2], in [3], in [4], in assay [5] and in assay [6] was greater than 100 µM each time. Moreover, the TGI in assay [17], in assay [7], in assay [8], in assay [9], in assay [10] and in [11] was greater than 100 µM throughout. Moreover, the TGI in assay [12], in assay [13], in [14], in assay [15] and in assay [16] was greater than 100 µM in each case.

In the case of `O=C1/C(=C/c2cccs2)NC(=S)N1CN1CCOCC1`, the TGI in [1], in assay [2], in assay [3], in assay [5], in [6] and in assay [7] was greater than 100 µM throughout. Moreover, the TGI in assay [8], in assay [9], in assay [10], in assay [11], in assay [12] and in assay [13] was greater than 100 µM each time. Also, the TGI in assay [14], in assay [15] and in assay [16] was greater than 100 µM each time.

For `C=Cc1cc2c(cc1O)CC[C@@H]1[C@@H]2CC[C@]2(C)[C@@H](O)CC[C@@H]12`, the TGI in assay [18] stood at 36.2 µM; in assay [2], 4.29 µM; in assay [3], 30.7 µM; in assay [4] it was 20.6 µM; in assay [5], 21.9 µM; in assay [6] it was 17.7 µM. For the same compound, the TGI is 12.1 µM in [7]; 18.7 µM in assay [8]; 14.5 µM in assay [9]; 10.5 µM in [10]; 24.4 µM in [11]; 25.1 µM in [12]. For the same compound, the results for the TGI in assay [13], in assay [14] and in [16] were 17.2 µM, 16.6 µM and 28.3 µM, respectively. Moreover, the GI50 is 2.57 µM in assay [7] and 4.41 µM in [14].

For `O=CC1OC(=O)c2cc(O)c(O)c(O)c2-c2c(cc(O)c(O)c2O)C(=O)OC1C(O)C(O)CO` (stereo not given), the TGI is 45.8 µM in assay [1]; 32.9 µM in [2]; greater than 100 µM in [3]; greater than 100 µM in [4]; greater than 100 µM in assay [5]; greater than 100 µM in assay [6]. Further, the TGI in assay [17] was greater than 100 µM; in assay [7], 81.1 µM; in assay [8], 35.8 µM; in [9], 56.8 µM; in assay [10], 67.9 µM; in assay [11] it was greater than 100 µM. Also, the TGI is 31.4 µM in assay [12], 85.5 µM in assay [13], greater than 100 µM in [14] and 72.4 µM in [15].

As to `Nc1nc(N)c2nc(-c3ccco3)cnc2n1`, the TGI in [1], in assay [3], in assay [4], in [5], in assay [6] and in [7] was greater than 100 µM in each case. Further, the TGI in assay [9] was greater than 100 µM; in [10], greater than 100 µM; in [11], 80 µM; in assay [12] it was greater than 100 µM; in [13] it was greater than 100 µM; in [15], greater than 100 µM. Besides, in assay [16], the TGI was greater than 100 µM.

`S=C(c1c[nH]c2ccccc12)N1CCN(c2ccccc2)CC1`: the TGI in assay [1], in [2], in assay [3], in assay [5], in assay [6] and in [17] was greater than 100 µM each time. In addition, the TGI was greater than 100 µM in [7]; greater than 100 µM in assay [8]; greater than 100 µM in assay [9]; greater than 100 µM in [10]; 21.6 µM in assay [11]; greater than 100 µM in assay [12]. The TGI in [13], in [14], in assay [15] and in assay [16] was greater than 100 µM in each case.

Turning to `Cc1ccc([N+](=O)[O-])cc1S(=O)(=O)Nc1ccc(C2=NNC(c3cccs3)C2)cc1` (stereo not given), the TGI is 43.4 µM in [18]; greater than 100 µM in assay [1]; greater than 100 µM in [2]; greater than 100 µM in [3]; greater than 100 µM in assay [4]; greater than 100 µM in [5]. For the same compound, the TGI in assay [6] was 68.8 µM; in assay [17] it was 83.8 µM; in [7] it was 63.5 µM; in [9], 92.9 µM; in assay [10], 63.9 µM; in [11] it was greater than 100 µM. Besides, the TGI in assay [12] is greater than 100 µM; in [13], greater than 100 µM; in [14] it was greater than 100 µM; in assay [15] it was greater than 100 µM; in assay [16] it was 89.4 µM.

As for `CC1C(c2ccc3c(c2)OCO3)c2cc3c(cc2OC1N1CCCCC1)OCO3` (stereo not given), the TGI in assay [18] was greater than 100 µM; in assay [1] it was greater than 100 µM; in assay [2] it was 62.8 µM; in [4] it was greater than 100 µM; in [5], greater than 100 µM; in assay [6], greater than 100 µM. Moreover, the TGI in assay [7], in assay [9], in [10], in assay [12], in [13] and in [14] was greater than 100 µM in each case. The compound also came in with a TGI in [15] greater than 100 µM.

Regarding `Fc1cc(-c2ncc(Cl)cc2Cl)c2cccccc1-2`, the TGI in [1], in assay [3], in [4], in assay [5], in assay [6] and in assay [17] was greater than 100 µM throughout. Besides, the TGI in assay [7], in [8], in assay [10], in assay [11], in [12] and in assay [14] was greater than 100 µM throughout. The TGI in assay [16] is greater than 100 µM.

Turning to `COc1ccc(Nc2nc(N)c(C(=O)c3ccccc3)s2)cc1`, the TGI was greater than 100 µM in [18]; greater than 100 µM in assay [1]; greater than 100 µM in assay [2]; 29.5 µM in assay [3]; greater than 100 µM in [4]; greater than 58.1 µM in assay [5]. In addition, the TGI in assay [17] is greater than 84.5 µM; in assay [7], 3.38 µM; in assay [9] it was greater than 61.7 µM; in assay [10], greater than 100 µM; in assay [11] it was 0.33 µM; in [12], greater than 100 µM. Further, the TGI in [13] was greater than 80.6 µM; in assay [14] it was greater than 72.8 µM; in assay [15] it was 32.7 µM; in assay [16] it was greater than 100 µM.

Values taken from PubChem BioAssay (NCI).
